Source: US20140288044A1, “COMPOSITIONS AND THERAPEUTIC USES OF IKK-RELATED KINASE EPSILON AND TANKBINDING KINASE 1 INHIBITORS” (Alzheimer's Institute of America, Inc., priority 2011, published 2014)
Like-named read-outs stand apart in the source and are kept apart here.

Columns and labels:
[1] = biological target: T1, IKKε (Homo sapiens, UniProt Q14164); test: In-vitro IKKε kinase assay (radiolabelled ATP, filterplate); assay type: biochemical
T1 construct: His-tag (in-house Sf9 preparation) or GST-tag (purchased Invitrogen preparation); these are alternatives, not both on one protein; host or cells: Sf9 cells
T1 sequence (Q14164 1-716): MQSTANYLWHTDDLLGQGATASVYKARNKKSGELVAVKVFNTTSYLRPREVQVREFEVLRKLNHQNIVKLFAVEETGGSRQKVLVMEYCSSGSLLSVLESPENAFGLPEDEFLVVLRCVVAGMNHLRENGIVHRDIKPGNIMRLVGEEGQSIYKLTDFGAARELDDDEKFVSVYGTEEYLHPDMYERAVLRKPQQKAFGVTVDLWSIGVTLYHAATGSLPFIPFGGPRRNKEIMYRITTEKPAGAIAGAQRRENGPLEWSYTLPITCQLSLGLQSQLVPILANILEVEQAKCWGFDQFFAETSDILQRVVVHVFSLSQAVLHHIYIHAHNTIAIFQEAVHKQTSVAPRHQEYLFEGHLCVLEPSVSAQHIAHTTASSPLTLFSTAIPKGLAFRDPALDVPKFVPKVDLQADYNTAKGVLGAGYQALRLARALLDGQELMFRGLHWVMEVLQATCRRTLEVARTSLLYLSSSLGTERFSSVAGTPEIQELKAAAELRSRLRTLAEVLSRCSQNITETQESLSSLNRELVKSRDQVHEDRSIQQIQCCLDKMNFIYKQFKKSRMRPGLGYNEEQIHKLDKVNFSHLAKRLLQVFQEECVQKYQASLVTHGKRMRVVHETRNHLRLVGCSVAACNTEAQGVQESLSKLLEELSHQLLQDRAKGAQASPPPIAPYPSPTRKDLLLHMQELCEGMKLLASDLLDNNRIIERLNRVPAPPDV
Summary of the method: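 His-tagged IKKε from Sf9 cells or GST-tagged IKKε, with myelin basic protein, casein or dephosphorylated casein as substrate and 32 μM ATP (2× Km) plus [γ^33]ATP. "Normal" assay used 0.1 μg/ml enzyme; "sensitized" used 0.015 μg/ml with dephosphorylated casein only. Stopped after 30–45 min with phosphoric acid; P-81 filter counts normalized to DMSO after background subtraction.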

[2] = tested on: IKKε-mediated phosphorylation of IRF3; test: ELISA for in-situ phosphorylation of IRF3 (phospho-Ser396) in HEK293T cells cotransfected with IRF3 and IKKε; assay type: cell-based; settings: Homo sapiens, HEK-293T, 20 h, HEK293T cells, 20 hours, read-out: IC50, in-situ IKKε-mediated phosphorylation of IRF3
Summary of the method: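 HEK293T cells cotransfected with IRF3 and IKKε were treated with compound for 20 h, and lysates were assayed by ELISA for phospho-Ser396 IRF3, normalized to DMSO. Viability was checked in parallel by CellTiter-Glo. For TBK1, cells cotransfected with IRF7 and TBK1 were treated overnight and probed by Western blot for phospho-Ser477/Ser479 IRF7.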

[3] = "sensitized" assay, read-out: IC50, inhibition of the kinase activity of IKKε
[4] = in-vitro IKKε kinase inhibition assays, given as 0.005 μM (5 nM), read-out: IKKε kinase inhibitory activity (IC50 value)
[5] = range given from about 1 μM to about 250 nM

Row | SMILES | IC50 [1, 3] | IC50 [1, 4] | IC50 [2, 5] | IC50 [2]
1 | CN(C)C1CCN(c2ccc(Nc3nccc(-c4ccc(OC5CCOCC5)c(C#N)c4)n3)nn2)C1 (stereo not shown) [Example Compound 87, 5-[2-({6-[3-(Dimethylamino)pyrrolidin-1-yl]pyridazin-3-yl}amino)pyrimidin-4-yl]-2-(tetrahydro-2H-pyran-4-yloxy)benzonitrile] | < 5 nM | < 5 nM | 250 to 1000 nM | 
2 | N#Cc1cc(-c2ccnc(Nc3cncc(C(=O)NCCO)c3)n2)ccc1OC1CCOCC1 [Example Compound 175, 5-({4-[3-Cyano-4-(tetrahydro-2H-pyran-4-yloxy)phenyl]pyrimidin-2-yl}amino)-N-(2-hydroxyethyl)pyridine-3-carboxamide] | < 5 nM |  |  | 1000 to 5000 nM
3 | COC(=O)c1cc(Nc2nccc(-c3ccc(OC4CCOCC4)c(C#N)c3)n2)ccn1 [Example Compound 230, Methyl 4-({4-[3-cyano-4-(tetrahydro-2H-pyran-4-yloxy)phenyl]pyrimidin-2-yl}amino)pyridine-2-carboxylate] | < 5 nM |  |  | 100 to 250 nM
4 | N#Cc1cc(-c2ccnc(Nc3ccnc(N4CC(O)C4)c3)n2)ccc1NC(=O)C1CC1 [Example Compound 237, N-[2-Cyano-4-(2-{[2-(3-hydroxyazetidin-1-yl)pyridin-4-yl]amino}pyrimidin-4-yl)phenyl]cyclopropanecarboxamide] | < 5 nM |  |  | 1000 to 5000 nM
5 | CC(O)c1ccc(Nc2nccc(-c3ccc(OC4CCOCC4)c(C#N)c3)n2)cn1 (stereo not shown) [Example Compound 231, 5-(2-{[6-(1-Hydroxyethyl)pyridin-3-yl]amino}pyrimidin-4-yl)-2-(tetrahydro-2H-pyran-4-yloxy)benzonitrile] | < 5 nM |  |  | 100 to 250 nM
6 | Cc1cc(Nc2nccc(-c3ccc(O[C@@H]4CCN(C(=O)CO)C4)c(C#N)c3)n2)ccn1 [Example Compound 123, 2-{[(3R)-1-(Hydroxyacetyl)pyrrolidin-3-yl]oxy}-5-{2-[(2-methylpyridin-4-yl)amino]pyrimidin-4-yl}benzonitrile] |  | < 5 nM | 250 to 1000 nM | 
7 | CC(C)COc1ccc(-c2ccnc(Nc3ccc(N(C)CCO)nc3)n2)cc1C#N [Example Compound 109, 5-[2-({6-[(2-Hydroxyethyl)(methyl)amino]pyridin-3-yl}amino)pyrimidin-4-yl]-2-(2-methylpropoxy)benzonitrile] | < 5 nM | < 5 nM |  | 100 to 250 nM
8 | N#Cc1cc(-c2ccnc(Nc3ccc(N4CCCC4)nc3)n2)ccc1OC1CCOCC1 [Example Compound 5, 5-(2-{[6-(Pyrrolidin-1-yl)pyridin-3-yl]amino}pyrimidin-4-yl)-2-(tetrahydro-2H-pyran-4-yloxy)benzonitrile] | < 5 nM | < 5 nM |  | 100 to 250 nM
9 | N#Cc1cc(-c2ccnc(Nc3ccnc(N4CCOCC4)c3)n2)ccc1OC1CCOCC1 [Example Compound 44, 5-(2-{[2-(Morpholin-4-yl)pyridin-4-yl]amino}pyrimidin-4-yl)-2-(tetrahydro-2H-pyran-4-yloxy)benzonitrile] | < 5 nM | < 5 nM |  | < 100 nM
10 | CN(Cc1ccc(Nc2nccc(-c3ccc(OC4CCOCC4)c(C#N)c3)n2)cn1)C(=O)CO [Example Compound 58, N-{[5-({4-[3-Cyano-4-(tetrahydro-2H-pyran-4-yloxy)phenyl]pyrimidin-2-yl}amino)pyridin-2-yl]methyl}-2-hydroxy-N-methylacetamide] |  | < 5 nM |  | 100 to 250 nM
11 | Cn1cc(-c2ccc(Nc3nccc(-c4ccc(OC5CCOCC5)c(C#N)c4)n3)cn2)cn1 [Example Compound 77, 5-(2-{[6-(1-Methyl-1H-pyrazol-4-yl)pyridin-3-yl]amino}pyrimidin-4-yl)-2-(tetrahydro-2H-pyran-4-yloxy)benzonitrile] |  | < 5 nM |  | < 100 nM
12 | N#Cc1cc(-c2ccnc(Nc3ccc(-n4cncn4)nc3)n2)ccc1OC1CCOCC1 [Example Compound 76, 2-(Tetrahydro-2H-pyran-4-yloxy)-5-(2-{[6-(1H-1,2,4-triazol-1-yl)pyridin-3-yl]amino}pyrimidin-4-yl)benzonitrile] | < 5 nM | < 5 nM |  | 100 to 250 nM
13 | C[C@@H](O)C(=O)N(C)Cc1ccc(Nc2nccc(-c3ccc(OC4CCOCC4)c(C#N)c3)n2)cn1 [Example Compound 57, (2R)—N-{[5-({4-[3-Cyano-4-(tetrahydro-2H-pyran-4-yloxy)phenyl]pyrimidin-2-yl}amino)pyridin-2-yl]methyl}-2-hydroxy-N-methylpropanamide] |  | < 5 nM | 250 to 1000 nM | 
14 | CC(c1ncc(Nc2nccc(-c3ccc(OC4CCOCC4)c(C#N)c3)n2)cc1F)N1CC(N(C)C)C1 (stereo not shown) [Example Compound 250, 5-{2-[(6-{1-[3-(Dimethylamino)azetidin-1-yl]ethyl}-5-fluoropyridin-3-yl)amino]pyrimidin-4-yl}-2-(tetrahydro-2H-pyran-4-yloxy)benzonitrile] | < 5 nM |  |  | 100 to 250 nM
15 | N#Cc1cc(-c2ccnc(Nc3ccc(N4CCOCC4)nn3)n2)ccc1OC1CCOCC1 [Example Compound 88, 5-(2-{[6-(Morpholin-4-yl)pyridazin-3-yl]amino}pyrimidin-4-yl)-2-(tetrahydro-2H-pyran-4-yloxy)benzonitrile] | < 5 nM | < 5 nM | 250 to 1000 nM | 
16 | CN(Cc1ccc(Nc2nccc(-c3ccc(OC4CCOCC4)c(C#N)c3)n2)cn1)C(=O)C1(N)CC1 [Example Compound 60, 1-Amino-N-{[5-({4-[3-cyano-4-(tetrahydro-2H-pyran-4-yloxy)phenyl]pyrimidin-2-yl}amino)pyridin-2-yl]methyl}-N-methylcyclopropanecarboxamide] |  | < 5 nM |  | 100 to 250 nM
17 | Cc1ccc(Nc2nccc(-c3ccc(OC4CCN(C(=O)[C@H](C)O)CC4)c(C#N)c3)n2)cn1 [Example Compound 128, 2-({1-[(2S)-2-Hydroxypropanoyl]piperidin-4-yl}oxy)-5-{2-[(6-methylpyridin-3-yl)amino]pyrimidin-4-yl}benzonitrile] | < 5 nM | < 5 nM |  | 1000 to 5000 nM
18 | CC(c1ccc(Nc2nccc(-c3ccc(OC4CCOCC4)c(C#N)c3)n2)cn1)N1CCOCC1 (stereo not shown) [Example Compound 252, 5-[2-({6-[1-(Morpholin-4-yl)ethyl]pyridin-3-yl}amino)pyrimidin-4-yl]-2-(tetrahydro-2H-pyran-4-yloxy)benzonitrile] | < 5 nM |  |  | < 100 nM
19 | N#Cc1cc(-c2ccnc(Nc3ccnc(N4CC(O)C4)c3)n2)ccc1OC1CCOCC1 [Example Compound 41, 5-(2-{[2-(3-Hydroxyazetidin-1-yl)pyridin-4-yl]amino}pyrimidin-4-yl)-2-(tetrahydro-2H-pyran-4-yloxy)benzonitrile] | < 5 nM | < 5 nM |  | 100 to 250 nM
20 | N#Cc1cc(-c2ccnc(Nc3ccc(C(=O)N4CC(O)C4)nc3)n2)ccc1OC1CCOCC1 [Example Compound 32, 5-[2-({6-[(3-Hydroxyazetidin-1-yl)carbonyl]pyridin-3-yl}amino)pyrimidin-4-yl]-2-(tetrahydro-2H-pyran-4-yloxy)benzonitrile] | < 5 nM | < 5 nM | 250 to 1000 nM | 
